≈ marks a conversion by molar mass, not a printed value. Non-standard residues stand in square brackets, D forms with d. Residues, ends and D or L forms follow the SMILES beside them.
Experiments:
[1] = test system: various bacteria; assay: MIC against various bacteria (broad-spectrum antimicrobial activity); type: cell-based
Procedure: • A. The antimicrobial peptide was prepared into a certain stock solution for use. 0.01% acetic acid (containing 0.2% BSA) was used as the diluent, and a series of gradient antimicrobial peptide solutions were prepared sequentially by a two-fold dilution method. • B. 100 μL of the above-mentioned antimicrobial peptide stock solution was taken and placed in a 96-well cell culture plate. Then, an equal volume of the test bacterial solution (approximately 10^5 cells/mL) was added to each well. A positive control (containing the bacterial solution but no antimicrobial peptide) and a negative control (containing neither bacterial solution nor the peptide) were included, respectively. The test bacterial species include Pseudomonas aeruginosa (Pseudomonas aeruginosa PL1, Pseudomonas aeruginosa SP1), Staphylococcus aureus (Staphylococcus aureus 544, Staphylococcus aureus 103), Escherichia coli (Escherichia coli 729, Escherichia coli 112), Klebsiella Pneumoniae (Klebsiella Pneumoniae 106, Klebsiella Pneumoniae 727), Streptococcus pneumonia 383, Acinetobacter baumannii (Acinetobacter baumannii 946, Acinetobacter baumannii 780) (FIG. 1), or Pseudomonas aeruginosa (Pseudomonas aeruginosa PAO1), Staphylococcus aureus (Staphylococcus aureus SP1), and a mixed solution of the above two bacteria (FIG. 2). • C. The culture plate was placed in a constant temperature incubator at 37° C. for 20 h. The minimum inhibitory concentration is determined as the condition where no turbidity is observed at the bottom of the well with naked eyes.
• A. The polypeptide Z4 composed entirely of dextrorotatory amino acids is called the dextrorotatory isomer of polypeptide Z4. The polypeptide Z4-D was prepared into a certain stock solution for use. […] The minimum inhibitory concentration is determined as the condition where no turbidity is observed at the bottom of the well with naked eyes.

[2] = test system: P. aeruginosa PL1; type: cell-based, Pseudomonas aeruginosa
Procedure: (§1) • A. The polypeptide Z4 composed entirely of dextrorotatory amino acids is called the dextrorotatory isomer of polypeptide Z4. The polypeptide Z4-D was prepared into a certain stock solution for use. 0.01% acetic acid (containing 0.2% BSA) was used as the diluent, and a series of gradient antimicrobial peptide solutions were prepared in sequence by a two-fold dilution method. • B. 100 μL of the above-mentioned antimicrobial peptide stock solution was taken and placed in a 96-well cell culture plate. Then, an equal volume of the test bacterial solution (approximately […]) was added to each well. A positive control (containing the bacterial solution but no antimicrobial peptide) and a negative control (containing neither the bacterial solution nor the peptide) were included, respectively. The test bacterial species include Pseudomonas aeruginosa (Pseudomonas aeruginosa PL1, Pseudomonas aeruginosa SP1), Staphylococcus aureus (Staphylococcus aureus 544, Staphylococcus aureus 103), Escherichia coli (Escherichia coli 729, Escherichia coli 112), Klebsiella Pneumoniae (Klebsiella Pneumoniae 106, Klebsiella Pneumoniae 727), Streptococcus pneumonia 383, and Acinetobacter baumannii (Acinetobacter baumannii 946, Acinetobacter baumannii 780). • C. […] The minimum inhibitory concentration is determined as the condition where no turbidity is observed at the bottom of the well with naked eyes.

[3] = test system: P. aeruginosa SP1; type: cell-based, Pseudomonas aeruginosa
Procedure: as §1

[4] = test system: S. aureus 103; type: cell-based, Staphylococcus aureus
Procedure: as §1

[5] = test system: S. aureus 544; type: cell-based, Staphylococcus aureus
Procedure: as §1

[6] = test system: E. coli 112; type: cell-based, Escherichia coli
Procedure: as §1

[7] = test system: E. coli 729; type: cell-based, Escherichia coli
Procedure: as §1

[8] = test system: K. pneumoniae 106; type: cell-based, Klebsiella Pneumoniae
Procedure: as §1

[9] = test system: K. pneumoniae 727; type: cell-based, Klebsiella Pneumoniae
Procedure: as §1

[10] = test system: S. pneumoniae 383; type: cell-based, Streptococcus pneumonia
Procedure: as §1

[11] = test system: A. baumannii 780; type: cell-based, Acinetobacter baumannii
Procedure: as §1

[12] = test system: A. baumannii 946; type: cell-based, Acinetobacter baumannii
Procedure: as §1

[13] = test system: mixed bacterial solution of P. aeruginosa PAO1 and S. aureus SP1; type: cell-based; conditions: within 0-120 minutes of proteinase K treatment, remained unchanged
Procedure: After ultrasonic treatment of polypeptide Z4 and polypeptide Z4-D for 30 min, they were placed at room temperature for 2 h to promote their self-assembly. Subsequently, proteinase K with a final concentration of 0.2 g/mL was mixed with the polypeptide solution (final concentration of 640 μM) and incubated at 37° C. for 0, 30, 60, 90 or 120 min respectively. Then, according to the scheme described in Example 2, the MICs of the polypeptides against the mixed bacterial solution of P. aeruginosa PAO1 and S. aureus SP1 under different treatment conditions were determined.

- MIC [2]: 16 µM (≈ 23.4 µg/mL)
- MIC [3]: 4 µM (≈ 5.84 µg/mL)
- MIC [4]: 4 µM (≈ 5.84 µg/mL)
- MIC [5]: 4 µM (≈ 5.84 µg/mL)
- MIC [6]: 4 µM (≈ 5.84 µg/mL)
- MIC [7]: 4 µM (≈ 5.84 µg/mL)
- MIC [8]: 128 µM (≈ 187 µg/mL)
- MIC [9]: 32 µM (≈ 46.7 µg/mL)
- MIC [10]: 4 µM (≈ 5.84 µg/mL)
- MIC [11]: 16 µM (≈ 23.4 µg/mL)
- MIC [12]: 4 µM (≈ 5.84 µg/mL)
- MIC after proteinase K treatment [13]: 4 µM (≈ 5.84 µg/mL)
Structure (SMILES): NCCCC[C@@H](NC(=O)[C@@H](Cc1c[nH]c2ccccc12)NC(=O)[C@H](N)Cc1c[nH]c2ccccc12)C(=O)N[C@H](CCCCN)C(=O)N[C@H](Cc1c[nH]c2ccccc12)C(=O)N[C@H](CCCCN)C(=O)N[C@H](CCCCN)C(=O)N[C@H](Cc1c[nH]c2ccccc12)C(=O)N[C@H](Cc1c[nH]c2ccccc12)C(N)=O [Z4-D] (H-[dW][dW][dK][dK][dW][dK][dK][dW][dW]-NH2; N-terminus assumed)
- broad-spectrum antimicrobial activity [1]: good broad-spectrum antimicrobial activity
